In publication PMC10258794, “To Fold or Not to Fold: Diastereomeric Optimization of an α-Helical Antimicrobial Peptide” (Journal of Medicinal Chemistry, 2023):
≈ marks a conversion by molar mass, not a printed value. Like-named read-outs stand apart in the source and are kept apart here. Non-standard residues stand in square brackets, D forms with d. Residues, ends and D or L forms follow the SMILES beside them.

Tests used:
[1] = CD spectroscopy, α-helix content; type: physicochemical; details: 5 mM DPC in 7 mM PB buffer pH 7.4, Dichroweb Contin LL set 4
Protocol: CD experiments were measured on a Jasco J-715 spectropolarimeter. All the experiments were performed using Hellma Suprasil 110-QS 0.1 cm cuvettes. For each peptide, the measurements were performed in phosphate buffer (PB, pH = 7.4, 7 mM), 10% TFE, 20% TFE, 5 mM DPC. The buffer was degassed for 10 min under high vacuum before each set of experiments. The concentration of the peptides was 0.100 mg/mL, and each sample was measured in one accumulation. The scan rate was 20 nm/min, pitch was 0.5 nm, response was 16 s, and bandwidth was 1.0 nm. The nitrogen flow was kept >8 L/min. After each measurement, the cuvettes were washed successively with milli-Q H2O and PB (pH 7.4). The baseline was recorded under the same conditions and subtracted manually. Primary CD spectra were analyzed using DichroWeb[58] and Contin-LL method (set 4).[74]

[2] = EYPC vesicle leakage assay; type: biochemical; details: 10 μg/mL of compound; 10 mM TRIS, 107 mM NaCl, pH 7.4
Protocol: (§1) 5(6)-carboxyfluorescein (CF) was purchased from Sigma. EYPC, EYPG, and a Mini-Extruder were purchased from Avanti Polar Lipids. Egg PC or Egg PG thin lipid layers were prepared by evaporating a solution of 100 mg of EYPC or EYPG in 4 mL of MeOH/CHCl3 (1:1) on a rotary evaporator at room temperature and then dried in vacuo overnight. […] Extravesicular components were removed by gel filtration (Sephadex G-50) with 10 mM TRIS, 107 mM NaCl, pH 7.4 buffer. Final conditions: ∼2.5 mM PC or PG; inside: 50 mM CF, 10 mM TRIS, 10 mM NaCl, pH 7.4 buffer; outside: 10 mM TRIS, 107 mM NaCl, pH 7.4. […] The CF efflux was monitored at λem 517 nm (λex 492 nm) as a function of time after addition of the desired volume of peptide from 2 mg/mL stock in mQ water at t = 45 s, 10 and 50 μg/mL were monitored for both EYPC and EYPG. […] Fluorescence intensities were then normalized to the maximal emission intensity using I(t) = (It – I0)/(I∞ – I0) where I0 = It at peptide addition, I∞ = It at saturation of lysis.

human red blood cells = assay: Hemolysis assay (MHC)
Protocol: To determine the MHC stock solutions, 8 mg/mL peptide in PBS (pH 7.4) was prepared, and 50 μL was diluted serially by l/2 in 50 μL of PBS (pH 7.4) in a 96-well plate (Costar or Nunc, polystyrene, untreated). […] Plasma was discarded, and the pellet was re-suspended in a 15 mL Falcon tube in 5 mL of PBS. The washing was repeated three times, and the remaining pellet was re-suspended in 10 mL of PBS. The hRBC suspension (50 μL) was added to each well, and the plate was incubated at room temperature for 4 h. MHC end points were determined by visual determination of the wells after the incubation period. Controls on each plate included a blank medium control (50 μL PBS + 50 μL of hRBCs suspension) and a hemolytic activity control (mQ-deionized water 50 μL + 50 μL hRBC suspension).

[3] = EYPG vesicle leakage assay; type: biochemical; details: 10 μg/mL of compound; 10 mM TRIS, 107 mM NaCl, pH 7.4
Protocol: as §1

S. aureus COL MRSA = details: for MIC S. aureus COL MRSA: MH broth pH 7.4, 16–20 h, 37 °C
In short: (§2)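 Twofold dilution series vs. bacteria (OD600 0.022 dilution, about 5 × 10^5 CFU) in Mueller–Hinton pH 7.4. Incubated 37 °C, 16–20 h, static. MTT added; visual yellow endpoint = MIC.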

E. coli W3110 = system: E. coli W3110
In short: as §2

P. aeruginosa PAO1 = system: P. aeruginosa PAO1
In short: as §2

K. pneumoniae NCTC418 = system: K. pneumoniae NCTC418
In short: as §2

A. baumannii ATCC19606 = system: A. baumannii ATCC19606
In short: as §2

[4] = system: Pseudomonas aeruginosa, Klebsiella pneumoniae, Acinetobacter baumannii, Escherichia coli, and methicillin-resistant Staphylococcus aureus; details: summary of Table 1
In short: as §2

[5] = MH broth pH 7.4, 16–20 h, 37 °C
[6] = supplementary CSV, ranges of Table 1 given as one number

| Compound | α-helix content (%) [1] [%] | EYPC vesicle leakage (%) [2] [%] | MHC (human red blood cells) [µg/mL] | MHC (human red blood cells; pH 7.4) [µg/mL] | EYPG vesicle leakage (%) [3] [%] | MIC S. aureus COL MRSA (S. aureus COL MRSA) [mg/L] | MIC E. coli W3110 (E. coli W3110; [5]) [mg/L] | MIC P. aeruginosa PAO1 (P. aeruginosa PAO1; [5]) [mg/L] | MIC K. pneumoniae NCTC418 (K. pneumoniae NCTC418; [5]) [mg/L] | MIC K. pneumoniae NCTC418 (K. pneumoniae NCTC418; NCTC418) [mg/L] | MIC A. baumannii ATCC19606 (A. baumannii ATCC19606; [5]) [mg/L] | MIC, span over the five bacterial strains [4] | MIC A. baumannii ATCC19606 (A. baumannii ATCC19606; ATCC19606) [mg/L] | MIC S. aureus COL (S. aureus COL MRSA; COL) [mg/L] | MIC E. coli W3110 (E. coli W3110; [6]) [mg/L] | also measured |
| --- | --- | --- | --- | --- | --- | --- | --- | --- | --- | --- | --- | --- | --- | --- | --- | --- |
| H-KKLLKLLKLLLKKLLKLLKLLL-NH2 [2ln65] | 91 | 40 | < 15.6 | <15.6 | 73 | >64 | >64 | >64 | >64 | >64 | >64 | entirely inactive |  |  |  |  |
| H-KKIIKIIKIII-NH2 [HP34] | 68 | 10 | 63 | 62.5 | 95 | >64 | 32 | >64 | >64 | >64 |  |  | 12 |  |  | MIC A. baumannii ATCC19606 (A. baumannii ATCC19606; ATCC19606, pH 7.4): 8 to 16 mg/L |
| CC[C@H](C)[C@H](NC(=O)[C@@H](NC(=O)[C@@H](NC(=O)[C@@H](CCCCN)NC(=O)[C@@H](NC(=O)[C@@H](NC(=O)[C@@H](CCCCN)NC(=O)[C@@H](NC(=O)[C@@H](NC(=O)[C@@H](CCCCN)NC(=O)[C@H](N)CCCCN)[C@@H](C)CC)[C@@H](C)CC)[C@@H](C)CC)[C@@H](C)CC)[C@@H](C)CC)[C@@H](C)CC)C(N)=O [HP35, kkIIkIIkIII] (H-[dK][dK]II[dK]II[dK]III-NH2) | 22 | 13 | 125 | 125 | 98 | >64 | 4 (≈ 3.03 µM) | 16 (≈ 12.1 µM) | >64 |  | 8 (≈ 6.05 µM) |  |  | >64 |  |  |
| CC(C)C[C@H](NC(=O)[C@H](CC(C)C)NC(=O)[C@H](CC(C)C)NC(=O)[C@@H](CCCCN)NC(=O)[C@H](CC(C)C)NC(=O)[C@H](CC(C)C)NC(=O)[C@@H](CCCCN)NC(=O)[C@H](CC(C)C)NC(=O)[C@H](CC(C)C)NC(=O)[C@@H](CCCCN)NC(=O)[C@@H](CCCCN)NC(=O)[C@H](CC(C)C)NC(=O)[C@H](CC(C)C)NC(=O)[C@H](CC(C)C)NC(=O)[C@@H](CCCCN)NC(=O)[C@H](CC(C)C)NC(=O)[C@H](CC(C)C)NC(=O)[C@@H](CCCCN)NC(=O)[C@H](CC(C)C)NC(=O)[C@H](CC(C)C)NC(=O)[C@@H](CCCCN)NC(=O)[C@H](N)CCCCN)C(N)=O [2ln69, (kkLLkLLkLLL)2] (H-[dK][dK]LL[dK]LL[dK]LLL[dK][dK]LL[dK]LL[dK]LLL-NH2) | 82 | 74 | < 15.6 | <15.6 | 71 | >64 | >64 | >64 | >64 |  | >64 | entirely inactive | >64 | >64 | >64 | MIC P. aeruginosa PAO1 (P. aeruginosa PAO1; PAO1): >64 mg/L |
| CC(C)C[C@H](NC(=O)[C@H](CC(C)C)NC(=O)[C@H](CC(C)C)NC(=O)[C@@H](CCCNC(=N)N)NC(=O)[C@H](CC(C)C)NC(=O)[C@H](CC(C)C)NC(=O)[C@@H](CCCNC(=N)N)NC(=O)[C@H](CC(C)C)NC(=O)[C@H](CC(C)C)NC(=O)[C@@H](CCCNC(=N)N)NC(=O)[C@H](N)CCCNC(=N)N)C(N)=O [HP33, rrLLrLLrLLL] (H-[dR][dR]LL[dR]LL[dR]LLL-NH2) | 63 | 56 |  |  | 85 | 2 to 4 | 4 to 8 | 4 to 8 | 4 to 8 |  | 4 (≈ 2.79 µM) |  |  |  | 6 (≈ 4.18 µM) | MHC (human red blood cells; human red blood cells in PBS pH 7.4, 4 h, room temperature): 125 µg/mL; MHC (human red blood cells; supplementary CSV, human red blood cells): 125 µg/mL; MIC S. aureus COL (S. aureus COL MRSA; [6]): 3 mg/L (≈ 2.09 µM); MIC P. aeruginosa PAO1 (P. aeruginosa PAO1; [6]): 6 mg/L (≈ 4.18 µM); MIC K. pneumoniae NCTC418 (K. pneumoniae NCTC418; [6]): 6 mg/L (≈ 4.18 µM) |
